Laboratory results from the NIST ThermoML archive (doi:10.1016/j.fluid.2014.09.014).
Numbers after ± are expanded uncertainties.

Experiment: xn = mol fraction of the nth substance listed
Details: 101 kPa, Liquid, mechanical oscillator

CC(C)OC(C)C [diisopropyl ether] + CC(C)O
mass density [kg/m3]
Details | 293.15 K | 298.15 K | 303.15 K | 308.15 K | 313.15 K | 318.15 K
x1 = 0.0277 | 784.54 ± 0.21 | 780.15 ± 0.21 | 775.28 ± 0.21 | 770.51 ± 0.21 | 766.2 ± 0.21 | –
x1 = 0.0507 | 783.14 ± 0.21 | 778.52 ± 0.21 | 773.7 ± 0.21 | 769.05 ± 0.21 | 764.54 ± 0.21 | 759.23 ± 0.21
x1 = 0.051 | 783.12 ± 0.21 | – | 773.67 ± 0.21 | 769.05 ± 0.21 | 764.52 ± 0.21 | 759.21 ± 0.21
x1 = 0.0717 | 781.73 ± 0.21 | 776.95 ± 0.21 | 772.14 ± 0.21 | 767.56 ± 0.21 | 762.92 ± 0.21 | 757.56 ± 0.21
x1 = 0.1528 | 775.51 ± 0.21 | 770.53 ± 0.21 | 765.48 ± 0.21 | 760.84 ± 0.21 | 756.03 ± 0.21 | 750.75 ± 0.21
x1 = 0.1938 | 772.05 ± 0.21 | – | 761.88 ± 0.21 | 757.06 ± 0.21 | – | –
x1 = 0.2029 | 771.28 ± 0.21 | 766.41 ± 0.21 | 761.07 ± 0.21 | 756.2 ± 0.21 | 751.49 ± 0.21 | 746.41 ± 0.21
x1 = 0.245 | 767.66 ± 0.21 | 762.95 ± 0.21 | 757.34 ± 0.21 | 752.2 ± 0.21 | 747.64 ± 0.21 | 742.79 ± 0.21
x1 = 0.297 | – | 758.78 ± 0.21 | 752.77 ± 0.22 | 747.3 ± 0.21 | 742.94 ± 0.21 | 738.39 ± 0.21
x1 = 0.3068 | 762.42 ± 0.21 | 758.01 ± 0.22 | 751.96 ± 0.22 | 746.39 ± 0.21 | 742.11 ± 0.21 | 737.61 ± 0.21
x1 = 0.398 | 755.24 ± 0.22 | 751.23 ± 0.22 | 744.62 ± 0.22 | 738.38 ± 0.22 | 734.56 ± 0.21 | 730.51 ± 0.21
x1 = 0.4609 | 750.87 ± 0.22 | 747.02 ± 0.22 | 740.13 ± 0.23 | 733.51 ± 0.22 | 729.95 ± 0.22 | 726.09 ± 0.22
x1 = 0.5434 | 745.99 ± 0.22 | 742.15 ± 0.23 | 735.09 ± 0.23 | 728.12 ± 0.23 | 724.76 ± 0.22 | 720.95 ± 0.22
x1 = 0.6032 | 743.03 ± 0.23 | 739.05 ± 0.23 | 732 ± 0.24 | 724.92 ± 0.23 | 721.58 ± 0.22 | 717.67 ± 0.23
x1 = 0.6371 | 741.54 ± 0.23 | 737.43 ± 0.24 | 730.43 ± 0.24 | 723.33 ± 0.23 | 719.96 ± 0.23 | 715.94 ± 0.23
x1 = 0.701 | 738.99 ± 0.24 | – | – | – | – | –
x1 = 0.754 | 737.02 ± 0.25 | 732.28 ± 0.25 | 725.68 ± 0.25 | 718.81 ± 0.25 | 715.06 ± 0.24 | 710.5 ± 0.24
x1 = 0.791 | – | 730.68 ± 0.26 | 724.25 ± 0.26 | 717.51 ± 0.25 | 713.58 ± 0.25 | 708.82 ± 0.25
x1 = 0.8296 | 734.1 ± 0.26 | 728.95 ± 0.26 | 722.69 ± 0.26 | 716.11 ± 0.26 | 711.97 ± 0.26 | 707.02 ± 0.26
x1 = 0.8903 | 731.31 ± 0.28 | 725.97 ± 0.28 | 719.93 ± 0.28 | 713.61 ± 0.27 | 709.12 ± 0.27 | 703.97 ± 0.27
x1 = 0.9113 | 730.18 ± 0.28 | 724.83 ± 0.28 | 718.84 ± 0.28 | 712.6 ± 0.27 | 707.99 ± 0.27 | 702.81 ± 0.27
x1 = 0.9547 | 727.49 ± 0.29 | 722.2 ± 0.29 | 716.27 ± 0.29 | 710.18 ± 0.28 | 705.35 ± 0.28 | 700.18 ± 0.28
x1 = 0.973 | 726.17 ± 0.29 | 720.98 ± 0.29 | 715.03 ± 0.29 | 708.99 ± 0.29 | 704.08 ± 0.28 | 698.96 ± 0.28
x1 = 0.9771 | 725.86 ± 0.29 | 720.69 ± 0.29 | 714.73 ± 0.29 | 708.7 ± 0.29 | 703.78 ± 0.29 | 698.67 ± 0.28
x1 = 1 | 723.86 ± 0.3 | 718.3 ± 0.3 | 712.68 ± 0.3 | 707.06 ± 0.29 | 701.5 ± 0.29 | 696.98 ± 0.29

CC(C)OC(C)C [diisopropyl ether] + CO
mass density [kg/m3]
Details | 293.15 K | 298.15 K | 303.15 K | 308.15 K | 313.15 K | 318.15 K
x2 = 0 | 723.86 ± 0.3 | 718.3 ± 0.3 | 712.68 ± 0.3 | 707.06 ± 0.29 | 701.5 ± 0.29 | 696.98 ± 0.29
x2 = 0.0423 | 725.34 ± 0.29 | 720.12 ± 0.29 | – | 708.61 ± 0.28 | 702.92 ± 0.28 | 698.39 ± 0.28
x2 = 0.0424 | 725.34 ± 0.29 | 720.13 ± 0.29 | 714.26 ± 0.29 | 708.63 ± 0.28 | 702.94 ± 0.28 | 698.41 ± 0.28
x2 = 0.082 | 727.36 ± 0.28 | 722.06 ± 0.28 | 716.26 ± 0.28 | 710.51 ± 0.28 | 704.95 ± 0.27 | 699.97 ± 0.27
x2 = 0.0822 | 727.37 ± 0.28 | 722.07 ± 0.28 | 716.27 ± 0.28 | 710.52 ± 0.28 | 704.96 ± 0.27 | 699.98 ± 0.27
x2 = 0.1171 | 729.04 ± 0.27 | 723.73 ± 0.27 | 717.96 ± 0.27 | 712.26 ± 0.27 | 706.79 ± 0.27 | 701.61 ± 0.27
x2 = 0.1271 | 729.5 ± 0.27 | 724.19 ± 0.27 | 718.43 ± 0.27 | 712.74 ± 0.27 | 707.29 ± 0.27 | 702.07 ± 0.26
x2 = 0.1827 | 731.99 ± 0.26 | 726.76 ± 0.26 | 720.98 ± 0.26 | 715.35 ± 0.26 | 709.93 ± 0.26 | 704.6 ± 0.25
x2 = 0.2162 | 733.44 ± 0.25 | 728.28 ± 0.25 | 722.47 ± 0.25 | 716.86 ± 0.25 | 711.42 ± 0.25 | 706.1 ± 0.25
x2 = 0.251 | 734.94 ± 0.25 | 729.84 ± 0.25 | 723.99 ± 0.25 | 718.4 ± 0.25 | 712.93 ± 0.25 | 707.66 ± 0.24
x2 = 0.3298 | 738.41 ± 0.24 | 733.39 ± 0.24 | 727.46 ± 0.24 | 721.88 ± 0.24 | 716.3 ± 0.24 | 711.24 ± 0.23
x2 = 0.3577 | 739.69 ± 0.23 | – | 728.71 ± 0.24 | 723.14 ± 0.23 | 717.52 ± 0.23 | 712.55 ± 0.23
x2 = 0.445 | – | – | 733.04 ± 0.23 | – | – | –
x2 = 0.4525 | 744.38 ± 0.23 | 739.19 ± 0.23 | 733.18 ± 0.23 | 727.64 ± 0.23 | 721.96 ± 0.22 | 717.21 ± 0.22
x2 = 0.522 | 748.28 ± 0.22 | – | 736.82 ± 0.22 | 731.34 ± 0.22 | 725.66 ± 0.22 | 720.99 ± 0.22
x2 = 0.5543 | 750.25 ± 0.22 | 744.6 ± 0.22 | 738.65 ± 0.22 | 733.22 ± 0.22 | 727.56 ± 0.22 | 722.88 ± 0.22
x2 = 0.609 | 753.85 ± 0.22 | 747.88 ± 0.22 | 742.01 ± 0.22 | 736.67 ± 0.22 | 731.07 ± 0.22 | 726.33 ± 0.21
x2 = 0.6529 | 756.99 ± 0.22 | 750.75 ± 0.22 | 744.97 ± 0.22 | 739.73 ± 0.22 | 734.2 ± 0.22 | 729.37 ± 0.21
x2 = 0.7504 | 764.78 ± 0.22 | 758.11 ± 0.22 | 752.58 ± 0.21 | 747.61 ± 0.21 | 742.24 ± 0.21 | 737.12 ± 0.21
x2 = 0.804 | 769.56 ± 0.22 | 762.86 ± 0.21 | 757.48 ± 0.21 | 752.69 ± 0.21 | – | –
x2 = 0.807 | 769.84 ± 0.22 | 763.14 ± 0.22 | 757.78 ± 0.21 | – | 747.67 ± 0.21 | 742.4 ± 0.21
x2 = 0.8727 | 776.23 ± 0.22 | 769.84 ± 0.21 | 764.66 ± 0.21 | 760.14 ± 0.21 | 754.77 ± 0.21 | 749.37 ± 0.21
x2 = 0.9253 | 781.7 ± 0.21 | 775.96 ± 0.21 | 770.89 ± 0.21 | 766.58 ± 0.21 | 761.06 ± 0.21 | 755.7 ± 0.21
x2 = 0.9527 | 784.68 ± 0.21 | 779.45 ± 0.21 | 774.42 ± 0.21 | 770.23 ± 0.21 | 764.57 ± 0.21 | 759.3 ± 0.21
x2 = 0.9773 | 787.42 ± 0.21 | 782.77 ± 0.21 | 777.76 ± 0.21 | 773.67 ± 0.21 | 767.86 ± 0.21 | 762.7 ± 0.21
x2 = 0.989 | – | 784.41 ± 0.21 | 779.41 ± 0.21 | 775.36 ± 0.21 | 769.46 ± 0.21 | 764.38 ± 0.21
x2 = 0.9964 | – | – | – | 776.46 ± 0.21 | 770.49 ± 0.21 | –
